Source: ChEMBL document CHEMBL1828590 (J Med Chem, 2011)
Active and inactive are the calls of the source. No cut-off for these calls is given here.

Assays:
Histone deacetylase 8 = biological target: T1, Histone deacetylase 8 (Homo sapiens, UniProt Q9BY41)
T1 sequence (Q9BY41 whole entry): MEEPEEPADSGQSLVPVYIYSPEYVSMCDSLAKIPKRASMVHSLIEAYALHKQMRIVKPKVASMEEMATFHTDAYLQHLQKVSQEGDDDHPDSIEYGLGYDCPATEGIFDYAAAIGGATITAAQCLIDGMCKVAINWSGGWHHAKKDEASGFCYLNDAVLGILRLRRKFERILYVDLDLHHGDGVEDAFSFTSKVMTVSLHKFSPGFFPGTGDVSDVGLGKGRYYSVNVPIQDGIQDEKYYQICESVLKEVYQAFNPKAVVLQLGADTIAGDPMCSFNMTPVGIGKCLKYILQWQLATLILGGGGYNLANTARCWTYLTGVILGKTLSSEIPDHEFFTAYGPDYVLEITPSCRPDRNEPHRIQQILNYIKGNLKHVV
Description: Competitive inhibition of HDAC8 using KI-104 as substrate by fluorescence assay

Histone deacetylase 1 = Histone deacetylase 1 (Homo sapiens, UniProt Q13547)
Chain of Histone deacetylase 1 (Q13547 whole entry): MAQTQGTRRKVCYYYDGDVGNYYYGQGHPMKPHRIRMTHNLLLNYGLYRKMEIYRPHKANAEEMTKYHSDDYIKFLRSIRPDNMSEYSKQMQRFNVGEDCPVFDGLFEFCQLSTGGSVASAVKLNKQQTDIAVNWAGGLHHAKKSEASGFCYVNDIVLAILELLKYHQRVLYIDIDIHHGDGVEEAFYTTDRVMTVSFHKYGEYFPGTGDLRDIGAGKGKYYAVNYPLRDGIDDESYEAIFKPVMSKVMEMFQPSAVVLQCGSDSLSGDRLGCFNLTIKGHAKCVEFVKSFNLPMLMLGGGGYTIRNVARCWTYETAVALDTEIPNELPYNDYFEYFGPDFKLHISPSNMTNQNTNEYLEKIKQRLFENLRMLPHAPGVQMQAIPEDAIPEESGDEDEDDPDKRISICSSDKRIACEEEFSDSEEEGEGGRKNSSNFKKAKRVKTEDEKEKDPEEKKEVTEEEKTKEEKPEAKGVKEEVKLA
Description: Inhibition of full length recombinant HDAC1 using Fluor de Lys as substrate by fluorescence assay

PC-3 = experiment: Antiproliferative activity against human PC3 cells after 96 hrs by celltiter 96 assay; assay type: functional, cell-based; settings: PC-3, 96 h
Cytochrome P450 3A4 [1] = biological target: T2, Cytochrome P450 3A4 (Homo sapiens, UniProt P08684); experiment: Inhibition of recombinant CYP3A4 after 30 mins by fluorescence assay; assay type: ADME
T2 sequence (P08684 whole entry): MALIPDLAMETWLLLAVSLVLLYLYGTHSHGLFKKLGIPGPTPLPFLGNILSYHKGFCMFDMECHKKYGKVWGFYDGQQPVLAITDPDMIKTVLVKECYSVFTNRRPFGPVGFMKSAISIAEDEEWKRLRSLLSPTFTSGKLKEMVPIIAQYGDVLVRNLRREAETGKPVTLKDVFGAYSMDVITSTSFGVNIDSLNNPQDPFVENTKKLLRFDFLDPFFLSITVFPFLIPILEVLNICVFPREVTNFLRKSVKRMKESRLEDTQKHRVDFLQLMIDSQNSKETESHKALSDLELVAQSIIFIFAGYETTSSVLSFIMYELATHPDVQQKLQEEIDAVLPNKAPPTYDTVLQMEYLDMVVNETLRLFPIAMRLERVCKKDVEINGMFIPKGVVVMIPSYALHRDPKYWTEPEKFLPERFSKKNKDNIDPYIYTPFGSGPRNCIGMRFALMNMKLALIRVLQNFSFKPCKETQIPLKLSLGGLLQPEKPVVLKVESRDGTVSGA

HCT-116 [2] = experiment: Antiproliferative activity against human HCT116 cells after 96 hrs by celltiter 96 assay; assay type: functional, cell-based; settings: HCT-116, 96 h
Histone deacetylase 3 = Histone deacetylase 3 (Homo sapiens, UniProt O15379)
Chain of Histone deacetylase 3 (O15379 whole entry): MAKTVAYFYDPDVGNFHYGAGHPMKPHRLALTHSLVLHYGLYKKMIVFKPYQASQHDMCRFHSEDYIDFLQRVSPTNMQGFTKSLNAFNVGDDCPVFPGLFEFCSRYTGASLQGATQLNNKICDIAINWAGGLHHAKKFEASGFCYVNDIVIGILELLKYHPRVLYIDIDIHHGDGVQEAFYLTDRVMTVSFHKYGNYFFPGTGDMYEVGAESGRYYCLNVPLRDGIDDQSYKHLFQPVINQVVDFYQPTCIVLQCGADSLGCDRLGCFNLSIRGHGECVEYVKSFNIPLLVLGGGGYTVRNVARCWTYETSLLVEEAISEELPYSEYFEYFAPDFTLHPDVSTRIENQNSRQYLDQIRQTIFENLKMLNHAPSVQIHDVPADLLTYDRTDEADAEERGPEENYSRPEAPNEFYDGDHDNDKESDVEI
Description: Competitive inhibition of HDAC3 using KI-104 as substrate by fluorescence assay

Cytochrome P450 3A4 [3] = biological target: T2, Cytochrome P450 3A4; experiment: Inhibition of CYP3A4 in human liver microsomes
Histone deacetylase 9 = Histone deacetylase 9 (Homo sapiens, UniProt Q9UKV0)
Chain of Histone deacetylase 9 (Q9UKV0 whole entry): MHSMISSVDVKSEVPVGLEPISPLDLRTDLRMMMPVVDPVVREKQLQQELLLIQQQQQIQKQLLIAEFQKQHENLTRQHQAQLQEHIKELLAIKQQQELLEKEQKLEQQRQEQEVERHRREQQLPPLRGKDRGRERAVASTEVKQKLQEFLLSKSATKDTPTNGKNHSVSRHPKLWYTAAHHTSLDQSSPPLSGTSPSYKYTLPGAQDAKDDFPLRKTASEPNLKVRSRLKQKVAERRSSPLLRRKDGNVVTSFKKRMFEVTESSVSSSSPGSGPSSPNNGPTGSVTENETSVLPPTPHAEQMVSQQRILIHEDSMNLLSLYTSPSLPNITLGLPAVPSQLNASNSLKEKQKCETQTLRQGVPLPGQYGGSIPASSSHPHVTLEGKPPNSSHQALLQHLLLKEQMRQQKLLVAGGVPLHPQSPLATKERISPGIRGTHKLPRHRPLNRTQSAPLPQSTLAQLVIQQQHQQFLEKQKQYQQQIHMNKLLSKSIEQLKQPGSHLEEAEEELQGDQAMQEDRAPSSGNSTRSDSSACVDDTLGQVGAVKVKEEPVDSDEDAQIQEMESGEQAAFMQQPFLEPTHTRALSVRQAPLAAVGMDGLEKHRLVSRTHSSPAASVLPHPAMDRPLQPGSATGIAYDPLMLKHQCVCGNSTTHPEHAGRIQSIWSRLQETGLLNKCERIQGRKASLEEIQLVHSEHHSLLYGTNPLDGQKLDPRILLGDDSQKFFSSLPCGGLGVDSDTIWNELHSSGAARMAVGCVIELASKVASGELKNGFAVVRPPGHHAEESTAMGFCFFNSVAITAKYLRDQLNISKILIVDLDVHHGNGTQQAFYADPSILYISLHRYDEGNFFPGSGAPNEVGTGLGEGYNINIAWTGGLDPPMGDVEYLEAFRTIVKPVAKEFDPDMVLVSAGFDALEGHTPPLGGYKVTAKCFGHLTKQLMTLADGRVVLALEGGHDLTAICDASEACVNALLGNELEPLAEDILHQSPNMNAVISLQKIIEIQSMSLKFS
Description: Competitive inhibition of HDAC9 using KI-104 as substrate by fluorescence assay

[4] = Toxicity in po dosed athymic nu/nu Harlan mouse with xenografted human HCT116 cells assessed as maximum tolerated administered qd for 21 days; assay type: organism-based, HCT-116; settings: in vivo
[5] = biological target: T3, Protein deacetylase HDAC6 (Homo sapiens, UniProt Q9UBN7)
T3 sequence (Q9UBN7 whole entry): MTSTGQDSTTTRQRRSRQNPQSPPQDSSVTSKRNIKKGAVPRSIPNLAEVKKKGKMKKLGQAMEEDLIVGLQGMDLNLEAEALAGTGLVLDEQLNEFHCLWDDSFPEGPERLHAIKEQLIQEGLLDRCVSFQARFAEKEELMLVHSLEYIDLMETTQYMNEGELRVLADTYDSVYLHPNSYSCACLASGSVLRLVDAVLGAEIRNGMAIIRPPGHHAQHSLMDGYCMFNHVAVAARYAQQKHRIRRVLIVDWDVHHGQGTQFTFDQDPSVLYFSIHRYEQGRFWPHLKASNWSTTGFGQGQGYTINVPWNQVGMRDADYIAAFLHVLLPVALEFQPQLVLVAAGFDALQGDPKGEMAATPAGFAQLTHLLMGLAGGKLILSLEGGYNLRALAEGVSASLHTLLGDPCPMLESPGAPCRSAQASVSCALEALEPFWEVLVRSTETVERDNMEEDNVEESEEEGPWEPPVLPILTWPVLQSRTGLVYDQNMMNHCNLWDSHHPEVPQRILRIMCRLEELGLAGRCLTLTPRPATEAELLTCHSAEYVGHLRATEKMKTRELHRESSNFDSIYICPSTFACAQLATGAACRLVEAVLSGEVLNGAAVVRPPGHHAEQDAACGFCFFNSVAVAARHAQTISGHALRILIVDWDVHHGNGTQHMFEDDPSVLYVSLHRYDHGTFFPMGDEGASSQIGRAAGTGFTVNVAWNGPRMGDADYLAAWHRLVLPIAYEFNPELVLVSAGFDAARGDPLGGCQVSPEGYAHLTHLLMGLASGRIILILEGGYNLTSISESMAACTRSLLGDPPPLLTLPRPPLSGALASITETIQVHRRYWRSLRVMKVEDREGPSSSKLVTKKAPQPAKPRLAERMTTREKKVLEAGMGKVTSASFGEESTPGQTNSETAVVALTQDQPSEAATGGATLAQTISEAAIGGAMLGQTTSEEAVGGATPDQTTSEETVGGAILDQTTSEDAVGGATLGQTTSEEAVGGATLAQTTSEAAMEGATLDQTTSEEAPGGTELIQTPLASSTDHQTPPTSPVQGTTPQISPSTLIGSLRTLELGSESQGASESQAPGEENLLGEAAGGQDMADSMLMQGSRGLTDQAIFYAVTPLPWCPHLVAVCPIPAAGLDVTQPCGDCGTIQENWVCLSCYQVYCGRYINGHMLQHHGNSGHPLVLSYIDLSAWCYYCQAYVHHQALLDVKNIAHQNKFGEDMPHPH
Description: Competitive inhibition of HDAC6 using KI-104 as substrate by fluorescence assay

Histone deacetylase 4 = Histone deacetylase 4 (Homo sapiens, UniProt P56524)
Chain of Histone deacetylase 4 (P56524 whole entry): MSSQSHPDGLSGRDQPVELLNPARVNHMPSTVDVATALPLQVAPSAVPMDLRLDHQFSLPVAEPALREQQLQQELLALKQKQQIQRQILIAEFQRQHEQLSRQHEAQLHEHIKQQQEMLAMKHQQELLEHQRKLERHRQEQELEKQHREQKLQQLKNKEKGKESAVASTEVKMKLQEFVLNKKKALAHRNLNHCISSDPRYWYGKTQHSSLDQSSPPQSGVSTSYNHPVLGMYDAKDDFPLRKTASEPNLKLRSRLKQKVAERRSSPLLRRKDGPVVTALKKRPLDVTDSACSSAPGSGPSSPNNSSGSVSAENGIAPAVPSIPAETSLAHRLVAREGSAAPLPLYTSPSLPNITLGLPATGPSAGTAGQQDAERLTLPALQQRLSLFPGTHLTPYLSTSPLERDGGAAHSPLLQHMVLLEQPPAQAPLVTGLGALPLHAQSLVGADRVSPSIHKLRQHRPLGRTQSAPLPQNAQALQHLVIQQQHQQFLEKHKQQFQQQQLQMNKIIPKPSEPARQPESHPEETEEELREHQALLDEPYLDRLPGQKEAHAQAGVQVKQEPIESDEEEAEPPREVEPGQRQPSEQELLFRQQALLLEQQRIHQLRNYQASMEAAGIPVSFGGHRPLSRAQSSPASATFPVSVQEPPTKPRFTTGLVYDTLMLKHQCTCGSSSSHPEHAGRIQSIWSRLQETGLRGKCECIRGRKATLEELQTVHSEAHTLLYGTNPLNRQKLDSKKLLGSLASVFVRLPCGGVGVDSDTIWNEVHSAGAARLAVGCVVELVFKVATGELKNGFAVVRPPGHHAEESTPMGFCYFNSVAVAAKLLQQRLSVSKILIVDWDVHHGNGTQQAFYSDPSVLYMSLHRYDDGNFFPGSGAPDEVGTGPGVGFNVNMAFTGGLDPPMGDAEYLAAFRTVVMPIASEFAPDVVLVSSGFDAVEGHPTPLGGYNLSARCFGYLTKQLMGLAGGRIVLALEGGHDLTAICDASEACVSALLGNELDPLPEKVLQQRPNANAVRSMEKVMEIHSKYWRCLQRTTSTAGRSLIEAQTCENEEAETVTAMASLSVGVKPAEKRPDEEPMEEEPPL
Description: Competitive inhibition of HDAC4 using KI-104 as substrate by fluorescence assay

[6] = Oral bioavailability in Wistar rat at 10 mg/kg; assay type: ADME, organism-based; settings: in vivo
[7] = Oral bioavailability in nude BALB/c mouse at 50 mg/kg; assay type: ADME, organism-based; settings: in vivo
[8] = Oral bioavailability in Beagle dog at 10 mg/kg; assay type: ADME, organism-based, Canis lupus familiaris; settings: in vivo
HCT-116 [9] = experiment: Antitumor activity against human HCT116 cells xenografted in nude BALB/c mouse assessed as tumor growth inhibition at 50 mg/kg, po qd for 21 days; assay type: functional; settings: HCT-116, 504 h, read-out: TGI
[10] = Plasma protein binding in human at 1000 ng/mL; assay type: ADME, cell-free; settings: read-out: PPB (converted)
[11] = Time required for attaining concentration above IC50 of HDAC1 in tumor of nude BALB/c mouse xenografted with HCT116 cells at 50 mg/kg, po administered as single dose; assay type: ADME, organism-based, Neoplasm, HCT-116; design: dose 50 mg/kg, route oral; settings: in vivo
[12] = Terminal half life in nude BALB/c mouse at 10 mg/kg, iv; assay type: ADME, organism-based; design: dose 10 mg/kg, route intravenous; settings: in vivo, read-out: beta t1/2 (converted)
[13] = Terminal half life in Wistar rat at 10 mg/kg, po; assay type: ADME, organism-based; design: dose 10 mg/kg, route oral; settings: in vivo, read-out: beta t1/2 (converted)
[14] = Solubility of the compound in 0.9% NaCl; assay type: physicochemical
[15] = biological target: Stromelysin-1 (Homo sapiens) (UniProt P08254); experiment: Inhibition of MMP3 at 10 uM
Chain of Stromelysin-1 (Homo sapiens) (P08254 100-477 limits assumed): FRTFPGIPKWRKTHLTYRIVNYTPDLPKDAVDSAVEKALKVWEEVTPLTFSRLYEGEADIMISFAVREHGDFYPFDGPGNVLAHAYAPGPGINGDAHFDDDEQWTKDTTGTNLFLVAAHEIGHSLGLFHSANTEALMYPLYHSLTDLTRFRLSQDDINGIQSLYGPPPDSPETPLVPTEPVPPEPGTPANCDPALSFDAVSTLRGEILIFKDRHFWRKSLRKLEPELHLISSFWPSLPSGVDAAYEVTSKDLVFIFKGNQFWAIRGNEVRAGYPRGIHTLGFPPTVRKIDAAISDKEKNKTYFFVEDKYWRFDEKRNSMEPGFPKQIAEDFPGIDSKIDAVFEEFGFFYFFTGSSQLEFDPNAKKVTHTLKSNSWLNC

A2780 = experiment: Antitumor activity against human A2780 cells xenografted in nude BALB/c mouse assessed as tumor growth inhibition at 50 mg/kg, po qd for 21 days measured on day 9; assay type: functional; settings: read-out: TGI
Mus musculus [16] = experiment: Toxicity in nude BALB/c mouse xenografted with human HCT116 cells assessed as mouse survival at 50 mg/kg, po QD for 21 days measured on day 22; assay type: organism-based, HCT-116; design: dose 50 mg/kg, route oral; settings: in vivo, 504 h
Mus musculus [17] = experiment: Toxicity in nude BALB/c mouse xenografted with human A2780 cells assessed as mortality at 50 mg/kg, po QD for 21 days measured on day 9; assay type: organism-based; design: dose 50 mg/kg, route oral; settings: in vivo, 504 h
Mus musculus [18] = experiment: Toxicity in nude BALB/c mouse xenografted with human HCT116 cells assessed as body weight loss at 100 mg/kg, po QD for 21 days measured on day 20; assay type: organism-based, HCT-116; design: dose 100 mg/kg, route oral; settings: in vivo, 504 h

SMILES	Ki (Histone deacetylase 8) [nM]	IC50 (Histone deacetylase 1) [nM]	IC50 (PC-3) [nM]	IC50 (Cytochrome P450 3A4 [1]) [nM]	IC50 (HCT-116 [2]) [nM]	Ki (Histone deacetylase 3) [nM]	IC50 (Cytochrome P450 3A4 [3]) [nM]	Ki (Histone deacetylase 9) [nM]	MTD at 504 h [4] [mg/kg]	Ki [5] [nM]	Ki (Histone deacetylase 4) [nM]	bioavailability [6] [%]	bioavailability [7] [%]	bioavailability [8] [%]	other results
CCCCCCc1nc2cc(/C=C/C(=O)NO)ccc2n1CCN(C)C	136	28	250	330	330	20	> 25000	11	200	300	5.3				
CN(C)CC(C)(C)Cn1c(CC(C)(C)C)nc2cc(/C=C/C(=O)NO)ccc21	65	46	500	2280	800	20	> 25000	11		94	7.9	4	51	110	
CCCCc1nc2cc(/C=C/C(=O)NO)ccc2n1CCN(CC)CC.Cl.Cl			340		480			24	50	247	16	3.1	34	65	inhibition in vivo at 50 mg/kg (HCT-116 [9]): 66%; fraction unbound at 1000 ng/mL [10]: 0.082; Time [11]: 10 h; half-life [12]: 2.26 h; half-life [13]: 2.02 h; solubility [14]: > 50 mg/mL; inhibition [15]: inactive; inhibition in vivo at 50 mg/kg (A2780): 44%; Activity (Mus musculus [16]): Non-toxic; Activity (Mus musculus [17]): Non-toxic; Activity (Mus musculus [18]): 19.9%
